Results published in PubChem BioAssay AID2060483 (Molecular Pharmacology Branch, DTP, NCI, 2025).

Tested on: K24384-001-R-PDC complex spheroids, viability
Assay: Anticancer human tumor K24384-001-R-PDC patient-derived pancreatic adenocarcinoma cell line growth inhibition [GQUAD]
Settings: for IC50: curve of first compound; for viability, T/C: stronger effect = lower value
How it was run: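 Tumor cells were grown as complex spheroids with HUVEC endothelial cells and mesenchymal stem cells as stroma. G-quadruplex stabilizers were combined with targeted agents over half-log dilutions from near the clinical Cmax, or from 10 microM.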

[1] = second compound 0.0316 µM, first compound 0.0316 µM
[2] = second compound 0.0316 µM, first compound 0.1 µM
[3] = second compound 0.0316 µM, first compound 0.316 µM
[4] = second compound 0.0316 µM, first compound 1 µM
[5] = second compound 0.0316 µM, first compound 3.16 µM
[6] = second compound 0.0316 µM, first compound 10 µM
[7] = second compound 0.1 µM, first compound 0.0316 µM
[8] = second compound 0.1 µM, first compound 0.1 µM
[9] = second compound 0.1 µM, first compound 0.316 µM
[10] = second compound 0.1 µM, first compound 1 µM
[11] = second compound 0.1 µM, first compound 3.16 µM
[12] = second compound 0.1 µM, first compound 10 µM
[13] = second compound 0.316 µM, first compound 0.0316 µM
[14] = second compound 0.316 µM, first compound 0.1 µM
[15] = second compound 0.316 µM, first compound 0.316 µM
[16] = second compound 0.316 µM, first compound 1 µM
[17] = second compound 0.316 µM, first compound 3.16 µM
[18] = second compound 0.316 µM, first compound 10 µM
[19] = second compound 1 µM, first compound 0.0316 µM
[20] = second compound 1 µM, first compound 0.1 µM
[21] = second compound 1 µM, first compound 0.316 µM
[22] = second compound 1 µM, first compound 1 µM
[23] = second compound 1 µM, first compound 3.16 µM
[24] = second compound 1 µM, first compound 10 µM
[25] = second compound 3.16 µM, first compound 0.0316 µM
[26] = second compound 3.16 µM, first compound 0.1 µM
[27] = second compound 3.16 µM, first compound 0.316 µM
[28] = second compound 3.16 µM, first compound 1 µM
[29] = second compound 3.16 µM, first compound 3.16 µM
[30] = second compound 3.16 µM, first compound 10 µM
[31] = second compound 10 µM, first compound 0.0316 µM
[32] = second compound 10 µM, first compound 0.1 µM
[33] = second compound 10 µM, first compound 0.316 µM
[34] = second compound 10 µM, first compound 1 µM
[35] = second compound 10 µM, first compound 3.16 µM
[36] = second compound 10 µM, first compound 10 µM
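Note: spheroids exposed to compounds for seven days.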

CC(C)n1c(=O)n(C)c2cnc3cc(F)c(-c4ccc(OCCCN5CCCCC5)nc4)cc3c21 + Cc1[nH]c2ccc(F)cc2c1-c1nc2c3cccnc3c3ncccc3c2[nH]1
IC50 (second compound 0.0316 µM): > 10000 nM
IC50 (second compound 0.1 µM): > 10000 nM
IC50 (second compound 0.316 µM): > 10000 nM
IC50 (second compound 1 µM): > 10000 nM
IC50 (second compound 3.16 µM): > 10000 nM
IC50 (second compound 10 µM): > 10000 nM
viability, T/C [1]: 108%
viability, T/C [2]: 96.1%
viability, T/C [3]: 126%
viability, T/C [4]: 110%
viability, T/C [5]: 122%
viability, T/C [6]: 87.5%
viability, T/C [7]: 92.1%
viability, T/C [8]: 129%
viability, T/C [9]: 110%
viability, T/C [10]: 116%
viability, T/C [11]: 157%
viability, T/C [12]: 91.7%
viability, T/C [13]: 87.1%
viability, T/C [14]: 100%
viability, T/C [15]: 100%
viability, T/C [16]: 96.6%
viability, T/C [17]: 125%
viability, T/C [18]: 146%
viability, T/C [19]: 104%
viability, T/C [20]: 107%
viability, T/C [21]: 101%
viability, T/C [22]: 99.1%
viability, T/C [23]: 134%
viability, T/C [24]: 107%
viability, T/C [25]: 78.6%
viability, T/C [26]: 89.2%
viability, T/C [27]: 79.9%
viability, T/C [28]: 99.4%
viability, T/C [29]: 99.1%
viability, T/C [30]: 83.3%
viability, T/C [31]: 71.9%
viability, T/C [32]: 73.4%
viability, T/C [33]: 71.1%
viability, T/C [34]: 96.3%
viability, T/C [35]: 79.4%
viability, T/C [36]: 72.1%

C=CC(=O)N1CCN(c2nc(=O)n(-c3c(C)ccnc3C(C)C)c3nc(-c4c(O)cccc4F)c(F)cc23)C(C)C1 (stereo unspecified) + Cc1cnc(CNC(=O)c2c(=O)c3ccc(N4CCCN(C)CC4)nc3n3c2sc2ccccc23)cn1
IC50 (second compound 0.0316 µM): > 10000 nM
IC50 (second compound 0.1 µM): 8780 nM
IC50 (second compound 0.316 µM): > 10000 nM
IC50 (second compound 1 µM): < 31.6 nM
IC50 (second compound 3.16 µM): < 31.6 nM
IC50 (second compound 10 µM): < 31.6 nM
viability, T/C [1]: 79.5%
viability, T/C [2]: 78.9%
viability, T/C [3]: 92.1%
viability, T/C [4]: 88.5%
viability, T/C [5]: 98.4%
viability, T/C [6]: 83.2%
viability, T/C [7]: 54.7%
viability, T/C [8]: 78%
viability, T/C [9]: 53.6%
viability, T/C [10]: 64.6%
viability, T/C [11]: 58.8%
viability, T/C [12]: 48.9%
viability, T/C [13]: 48.3%
viability, T/C [14]: 71.5%
viability, T/C [15]: 64.3%
viability, T/C [16]: 65.5%
viability, T/C [17]: 70.8%
viability, T/C [18]: 49.3%
viability, T/C [19]: 41%
viability, T/C [20]: 52.3%
viability, T/C [21]: 42.5%
viability, T/C [22]: 66.3%
viability, T/C [23]: 59.9%
viability, T/C [24]: 47.7%
viability, T/C [25]: 35.3%
viability, T/C [26]: 48.6%
viability, T/C [27]: 39.6%
viability, T/C [28]: 47.5%
viability, T/C [29]: 47.5%
viability, T/C [30]: 37.5%
viability, T/C [31]: 20.8%
viability, T/C [32]: 23.7%
viability, T/C [33]: 31.4%
viability, T/C [34]: 42%
viability, T/C [35]: 23.3%
viability, T/C [36]: 22.7%

C=CCn1c(=O)c2cnc(Nc3ccc(N4CCN(C)CC4)cc3)nc2n1-c1cccc(C(C)(C)O)n1 + CN(C)c1ccc(Nc2c3ccc(NC(=O)CCN4CCCC4)cc3nc3cc(NC(=O)CCN4CCCC4)ccc23)cc1
IC50 (second compound 0.0316 µM): 392 nM
IC50 (second compound 0.1 µM): 266 nM
IC50 (second compound 0.316 µM): 236 nM
IC50 (second compound 1 µM): 275 nM
IC50 (second compound 3.16 µM): 235 nM
IC50 (second compound 10 µM): 229 nM
viability, T/C [1]: 85.5%
viability, T/C [2]: 81%
viability, T/C [3]: 57.3%
viability, T/C [4]: 18%
viability, T/C [5]: 15.9%
viability, T/C [6]: 17.9%
viability, T/C [7]: 76.2%
viability, T/C [8]: 68.9%
viability, T/C [9]: 47%
viability, T/C [10]: 15.6%
viability, T/C [11]: 14%
viability, T/C [12]: 14.8%
viability, T/C [13]: 80.2%
viability, T/C [14]: 86.7%
viability, T/C [15]: 38.6%
viability, T/C [16]: 16.3%
viability, T/C [17]: 12%
viability, T/C [18]: 14.5%
viability, T/C [19]: 76.7%
viability, T/C [20]: 83.3%
viability, T/C [21]: 45.9%
viability, T/C [22]: 19.1%
viability, T/C [23]: 12.2%
viability, T/C [24]: 18%
viability, T/C [25]: 84.2%
viability, T/C [26]: 80.3%
viability, T/C [27]: 39.3%
viability, T/C [28]: 19.3%
viability, T/C [29]: 16.3%
viability, T/C [30]: 13.6%
viability, T/C [31]: 63.5%
viability, T/C [32]: 64.8%
viability, T/C [33]: 44.5%
viability, T/C [34]: 20%
viability, T/C [35]: 16.9%
viability, T/C [36]: 13.1%
